Data from patent publication US5877030A, “Process for creating molecular diversity and novel protease inhibitors produced thereby” (priority 1995, dated 1999).
pKi: −log10 of the molar value.

Assays:
trypsin [1] = target: T1, trypsin (Bos taurus, UniProt P00760); assay: Trypsin inhibitor assay (trypsin-catalyzed hydrolysis of BAPA, absorbance at 410 nm), iterative screening of libraries; assay type: biochemical; conditions: comparison in words
T1 sequence (P00760 24-246): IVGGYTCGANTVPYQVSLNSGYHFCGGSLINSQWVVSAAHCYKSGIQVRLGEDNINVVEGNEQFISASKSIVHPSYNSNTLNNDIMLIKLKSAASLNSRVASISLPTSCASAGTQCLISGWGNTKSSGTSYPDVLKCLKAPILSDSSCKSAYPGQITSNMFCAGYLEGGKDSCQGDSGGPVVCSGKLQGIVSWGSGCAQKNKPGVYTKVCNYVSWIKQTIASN
Description: Each sub-library 1A-1F was tested for its ability to inhibit trypsin activity and the percent trypsin activity was correlated to the specific tool molecule group (see Table 3) that had been omitted during synthesis of the sub-library being assayed.

trypsin [2] = target: T1, trypsin; assay: Ki determination on trypsin (BAPA substrate, Michaelis-Menten / reciprocal plots); assay type: biochemical; conditions: for pKi: preliminary investigations
Description: The rate of the trypsin catalyzed reaction was determined by monitoring the increase in absorbance at 410 nm over time. In all measurements 5% (v/v) of dimethylsulfoxide (DMSO) was added to solubilize the libraries. For a typical assay, 50 μL of a library solution in DMSO and 10 μL of the trypsin stock solution (2.5 mg trypsin in 25 mL 0.001M HCl) were added to 5 mL of buffer (0.5M Tris-HCl, 0.16M CaCl21 pH 8.2) at 25° C. In regard to FIG. 19, the library solutions used for Charts A and B contained 2.5 mg in 50 μL DMSO; the library solution for Chart C contained 1 mg in 50 AL DMSO and the library solution for Chart D contained 0.5 mg in 50 μL DMSO.
After incubating for 10 min., the cloudy mixture was centrifuged, 0.4 mL of the clear supernatant was removed and diluted with 400 μL of buffer in a disposable 1.5 mL UV cuvette. Then, 50 μL of the BAPA (defined below) stock solution (50 mg BAPA in 5 mL DMSO) was added and the increase in absorbance at 410 nm was monitored. The trypsin activity was compared to a reference cuvette without added library material (B).
Methods for determining the Ki of an enzyme inhibitor would be known to those of ordinary skill in the art. (See also "Enzyme Kinetics & Behavior, Analysis of Rapid Equilibrium, and Steady State Enzyme Systems", ed. Segel, John Wiley & Sons, Inc., N.Y., N.Y. (1993), the contents of which are incorporated herein by reference.) A summary of the procedure used to obtain the Ki value for compound of Formula V.

thrombin = assay: Specificity against other proteases such as thrombin (initial experiments); assay type: biochemical
[3] = rat model; Sobajima et al.; cited from earlier work

CC[C@H](C)[C@H](NC(=O)c1cc(C(=O)N2CCC[C@H]2C(=O)O)cc2c1Oc1c(C(=O)N[C@@H](CCCCN)C(=O)OC)cc(C(=O)N[C@H](C(=O)O)C(C)C)cc1C2(C)C)C(=O)O [Formula V]
activity relative to structural isomer Formula VI (trypsin [1]): significantly more active than its structural isomer Formula VI | mode of inhibition of trypsin (trypsin [2]; 1/velocity vs. 1/(substrate concentration), five inhibitor concentrations 1×10^-6 M to 1×10^-4 M): competitive inhibitor of trypsin | pKi (trypsin [2]; 'in the 10 μM range'): ~5.00 | pKi (trypsin [2]; trypsin 7.4×10^-8 M, BAPA 2×10^-4 M to 7×10^-3 M, inhibitor 1×10^-6 M to 1×10^-4 M): ~5.05 | interference with other proteases, such as thrombin (thrombin): does not interfere with other proteases, such as thrombin

CS(=O)(=O)O.N=C(N)Nc1ccc(C(=O)Oc2ccc(SCCN3C(=O)CCC3=O)cc2)cc1 [4-(2-succinimidoethylthio)-phenyl 4-guanidinobenzoate methane sulfonate]
treatment of severe acute pancreatitis [3]: treating severe acute pancreatitis
